Earlier results in US4312857A, “Novel derivatives of beta-endorphin, intermediates therefor and compositions and methods employing said derivatives” (The United States of America as represented by the Veterans, priority 1977, dated 1982).

Tests used:
[1] = system: partially purified brain opiate receptor sites
rat = conditions: injected directly into the brain of the rat

H-Tyr-Gly-Gly-Phe-Met-OH [methionine enkephalin]
binding to partially purified brain opiate receptor sites [1]: binds stereo-specifically | analgesic effect (rat): weak analgesic agent of short duration
